Data from patent US11718604B2, “4-amino-6-(1,3-benzodioxole)picolinates and their use as herbicides” (Dow AgroSciences LLC, priority 2018, dated 2023).

Tests used:
Format in all cases: in vivo
[1] = system: BRSNN: oilseed rape, canola (Brassica napus); assay: Post-emergent herbicidal test, oilseed rape; conditions: post-emergence, 336 h, 14 days after application, read-out: Visual Growth Reduction (%) 14 Days After Application BRSNN
Protocol: (§1) Post-Emergent Test: Seeds or nutlets of the desired test plant species were planted in Sun Gro Metro-Mix® 360 planting mixture, which typically has a pH of 6.0 to 6.8 and an organic matter content of about 30 percent, in plastic pots with a surface area of 64 square centimeters (cm^2). When required to ensure good germination and healthy plants, a fungicide treatment and/or other chemical or physical treatment was applied. The plants were grown for 7-21 d in a greenhouse with an approximate 15 h photoperiod which was maintained at about 23-29° C. during the day and 22-28° C. during the night. Nutrients and water were added on a regular basis and supplemental lighting was provided with overhead metal halide 1000-Watt lamps as necessary. The plants were employed for testing when they reached the first or second true leaf stage.
(§2) A weighed amount, determined by the highest rate to be tested, of each test compound was placed in a 25 mL glass vial and was dissolved in 4 mL of a 97:3 v/v mixture of acetone and DMSO to obtain concentrated stock solutions. […] The concentrated stock solutions obtained were diluted with 20 mL of an aqueous mixture containing acetone, water, isopropyl alcohol, DMSO, Atplus 411F crop oil concentrate, and Triton® X-155 surfactant in a 48.5:39:10:1.5:1.0:0.02 v/v ratio to obtain spray solutions containing the highest application rates. Additional application rates were obtained by serial dilution of 12 mL of the high rate solution into a solution containing 2 mL of a 97:3 v/v mixture of acetone and DMSO and 10 mL of an aqueous mixture containing acetone, water, isopropyl alcohol, DMSO, Atplus 411F crop oil concentrate, and Triton X-155 surfactant in a 48.5:39:10:1.5:1.0:0.02 v/v ratio to obtain ½×, ¼×, ⅛× and 1/16× rates of the high rate. Compound requirements are based upon a 12 mL application volume at a rate of 187 liters per hectare (L/ha). Formulated compounds were applied to the plant material with an overhead Mandel track sprayer equipped with 8002E nozzles calibrated to deliver 187 L/ha over an application area of 0.503 square meters at a spray height of 18 inches (43 cm) above the average plant canopy height. Control plants were sprayed in the same manner with the solvent blank.
(§3) The treated plants and control plants were placed in a greenhouse as described above and watered by subirrigation to prevent wash-off of the test compounds. After 14 d, the condition of the test plants as compared with that of the untreated plants was determined visually and scored on a scale of 0 to 100 percent where 0 corresponds to no injury and 100 corresponds to complete kill.

[2] = system: VIOTR: wild violet (Viola tricolor); assay: Post-emergent herbicidal test, wild violet; conditions: post-emergence, 336 h, 14 days after application, read-out: Visual Growth Reduction (%) 14 Days After Application VIOTR
Protocol: as §1, §2, §3

[3] = system: CIRAR: Canada thistle (Cirsium arvense); assay: Post-emergent herbicidal test, Canada thistle; conditions: post-emergence, 336 h, 14 days after application, read-out: Visual Growth Reduction (%) 14 Days After Application CIRAR
Protocol: as §1, §2, §3

[4] = system: DIGSA: large crabgrass (Digitaria sanguinalis); assay: Post-emergent herbicidal test, large crabgrass; conditions: post-emergence, 336 h, 14 days after application, read-out: Visual Growth Reduction (%) 14 Days After Application DIGSA
Protocol: as §1, §2, §3

[5] = system: SORVU: shattercane (Sorghum bicolor); assay: Post-emergent herbicidal test, shattercane; conditions: post-emergence, 336 h, 14 days after application, read-out: Visual Growth Reduction (%) 14 Days After Application SORVU
Protocol: as §1, §2, §3

[6] = system: SETFA: giant foxtail (Setaria faberi); assay: Post-emergent herbicidal test, giant foxtail; conditions: post-emergence, 336 h, 14 days after application, read-out: Visual Growth Reduction (%) 14 Days After Application SETFA
Protocol: as §1, §2, §3

[7] = system: EPHHL: wild poinsettia (Euphorbia heterophylla); assay: Post-emergent herbicidal test, wild poinsettia; conditions: post-emergence, 336 h, 14 days after application, read-out: Visual Growth Reduction (%) 14 Days After Application EPHHL
Protocol: as §1, §2, §3

[8] = system: ABUTH: velvetleaf (Abutilon theophrasti); assay: Post-emergent herbicidal test, velvetleaf; conditions: post-emergence, 336 h, 14 days after application, read-out: Visual Growth Reduction (%) 14 Days After Application ABUTH
Protocol: as §1, §2, §3

[9] = system: CYPES: yellow nutsedge (Cyperus esculentus); assay: Post-emergent herbicidal test, yellow nutsedge; conditions: post-emergence, 336 h, 14 days after application, read-out: Visual Growth Reduction (%) 14 Days After Application CYPES
Protocol: as §1, §2, §3

[10] = system: IPOHE: ivyleaf morningglory (Ipomoea hederacea); assay: Post-emergent herbicidal test, ivyleaf morningglory; conditions: post-emergence, 336 h, 14 days after application, read-out: Visual Growth Reduction (%) 14 Days After Application IPOHE
Protocol: as §1, §2, §3

[11] = system: ECHCG: barnyardgrass (Echinochloa crus-galli); assay: Post-emergent herbicidal test, barnyardgrass; conditions: post-emergence, 336 h, 14 days after application, read-out: Visual Growth Reduction (%) 14 Days After Application ECHCG
Protocol: as §1, §2, §3

Structure (SMILES): COC(=O)c1nc(-c2ccc(I)c3c2OC(F)(F)O3)c(F)c(N)c1Cl [Compound 10]
- pest or weed control at 17.5 g/ha ([1]; 17.5 g ai/ha): 50%
- pest or weed control at 35 g/ha ([1]; 35 g ai/ha): 60%
- pest or weed control at 70 g/ha ([1]; 70 g ai/ha): 65%
- pest or weed control at 140 g/ha ([1]; 140 g ai/ha): 70%
- pest or weed control at 17.5 g/ha ([2]; 17.5 g ai/ha): 0%
- pest or weed control at 35 g/ha ([2]; 35 g ai/ha): 0%
- pest or weed control at 70 g/ha ([2]; 70 g ai/ha): 0%
- pest or weed control at 140 g/ha ([2]; 140 g ai/ha): 0%
- pest or weed control at 17.5 g/ha ([3]; 17.5 g ai/ha): 60%
- pest or weed control at 35 g/ha ([3]; 35 g ai/ha): 70%
- pest or weed control at 70 g/ha ([3]; 70 g ai/ha): 70%
- pest or weed control at 140 g/ha ([3]; 140 g ai/ha): 75%
- pest or weed control at 17.5 g/ha ([4]; 17.5 g ai/ha): 0%
- pest or weed control at 35 g/ha ([4]; 35 g ai/ha): 0%
- pest or weed control at 70 g/ha ([4]; 70 g ai/ha): 0%
- pest or weed control at 140 g/ha ([4]; 140 g ai/ha): 0%
- pest or weed control at 17.5 g/ha ([5]; 17.5 g ai/ha): 0%
- pest or weed control at 35 g/ha ([5]; 35 g ai/ha): 0%
- pest or weed control at 70 g/ha ([5]; 70 g ai/ha): 0%
- pest or weed control at 140 g/ha ([5]; 140 g ai/ha): 0%
- pest or weed control at 17.5 g/ha ([6]; 17.5 g ai/ha): 0%
- pest or weed control at 35 g/ha ([6]; 35 g ai/ha): 0%
- pest or weed control at 70 g/ha ([6]; 70 g ai/ha): 0%
- pest or weed control at 140 g/ha ([6]; 140 g ai/ha): 0%
- pest or weed control at 17.5 g/ha ([7]; 17.5 g ai/ha): 0%
- pest or weed control at 35 g/ha ([7]; 35 g ai/ha): 0%
- pest or weed control at 70 g/ha ([7]; 70 g ai/ha): 0%
- pest or weed control at 140 g/ha ([7]; 140 g ai/ha): 0%
- pest or weed control at 17.5 g/ha ([8]; 17.5 g ai/ha): 65%
- pest or weed control at 35 g/ha ([8]; 35 g ai/ha): 70%
- pest or weed control at 70 g/ha ([8]; 70 g ai/ha): 75%
- pest or weed control at 140 g/ha ([8]; 140 g ai/ha): 75%
- pest or weed control at 17.5 g/ha ([9]; 17.5 g ai/ha): 0%
- pest or weed control at 35 g/ha ([9]; 35 g ai/ha): 0%
- pest or weed control at 70 g/ha ([9]; 70 g ai/ha): 0%
- pest or weed control at 140 g/ha ([9]; 140 g ai/ha): 0%
- pest or weed control at 17.5 g/ha ([10]; 17.5 g ai/ha): 0%
- pest or weed control at 35 g/ha ([10]; 35 g ai/ha): 0%
- pest or weed control at 70 g/ha ([10]; 70 g ai/ha): 0%
- pest or weed control at 140 g/ha ([10]; 140 g ai/ha): 0%
- pest or weed control at 17.5 g/ha ([11]; 17.5 g ai/ha): 0%
- pest or weed control at 35 g/ha ([11]; 35 g ai/ha): 0%
- pest or weed control at 70 g/ha ([11]; 70 g ai/ha): 0%
- pest or weed control at 140 g/ha ([11]; 140 g ai/ha): 0%
